Results from ChEMBL document CHEMBL5303765, “Data for DCP probe BAY-7081” (2023).

What was measured:
[1] = target: T1, Serine/threonine-protein kinase 17B (Homo sapiens) (UniProt O94768); experiment: STK17B SGC Tm panel (DSF); conditions: for ΔTm: Compound concentration 10.0 uM
T1 sequence (whole entry): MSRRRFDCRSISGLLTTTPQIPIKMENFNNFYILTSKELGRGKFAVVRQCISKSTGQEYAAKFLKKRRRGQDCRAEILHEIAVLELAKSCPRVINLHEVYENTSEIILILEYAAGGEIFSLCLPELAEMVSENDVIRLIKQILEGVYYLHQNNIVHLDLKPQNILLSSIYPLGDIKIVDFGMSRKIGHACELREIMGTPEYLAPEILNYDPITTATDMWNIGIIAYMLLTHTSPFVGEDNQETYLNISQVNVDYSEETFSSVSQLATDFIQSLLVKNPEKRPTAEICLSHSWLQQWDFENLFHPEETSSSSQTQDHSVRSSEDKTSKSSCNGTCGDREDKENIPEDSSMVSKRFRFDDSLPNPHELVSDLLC

[2] = target: T2, Cytoplasmic tyrosine-protein kinase BMX (Homo sapiens) (UniProt P51813); experiment: BMX SGC Tm panel (DSF); conditions: for ΔTm: Compound concentration 10.0 uM
T2 sequence (whole entry): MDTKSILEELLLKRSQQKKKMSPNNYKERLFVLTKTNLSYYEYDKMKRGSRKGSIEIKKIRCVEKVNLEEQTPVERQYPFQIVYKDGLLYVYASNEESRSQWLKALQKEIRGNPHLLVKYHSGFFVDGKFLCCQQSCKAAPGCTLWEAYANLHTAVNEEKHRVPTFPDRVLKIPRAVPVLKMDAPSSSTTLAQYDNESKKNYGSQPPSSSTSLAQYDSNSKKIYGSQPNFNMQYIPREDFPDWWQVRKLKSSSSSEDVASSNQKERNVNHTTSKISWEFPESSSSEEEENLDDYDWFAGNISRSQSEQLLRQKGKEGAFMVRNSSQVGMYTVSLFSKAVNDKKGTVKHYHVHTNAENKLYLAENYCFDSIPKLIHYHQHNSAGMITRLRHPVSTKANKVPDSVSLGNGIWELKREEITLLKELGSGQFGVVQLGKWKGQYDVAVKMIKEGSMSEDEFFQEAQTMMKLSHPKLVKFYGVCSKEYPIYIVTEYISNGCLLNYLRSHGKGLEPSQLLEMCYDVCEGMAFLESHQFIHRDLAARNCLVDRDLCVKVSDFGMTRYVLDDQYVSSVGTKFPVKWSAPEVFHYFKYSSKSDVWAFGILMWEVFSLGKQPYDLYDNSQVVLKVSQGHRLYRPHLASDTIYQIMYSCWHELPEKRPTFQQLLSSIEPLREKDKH

[3] = target: Histamine H4 receptor (Homo sapiens) (UniProt Q9H3N8); conditions: Compound concentration 10.0 uM
[4] = target: T3, Alpha-2B adrenergic receptor (Homo sapiens) (UniProt P18089); conditions: Compound concentration 10.0 uM
T3 sequence (whole entry): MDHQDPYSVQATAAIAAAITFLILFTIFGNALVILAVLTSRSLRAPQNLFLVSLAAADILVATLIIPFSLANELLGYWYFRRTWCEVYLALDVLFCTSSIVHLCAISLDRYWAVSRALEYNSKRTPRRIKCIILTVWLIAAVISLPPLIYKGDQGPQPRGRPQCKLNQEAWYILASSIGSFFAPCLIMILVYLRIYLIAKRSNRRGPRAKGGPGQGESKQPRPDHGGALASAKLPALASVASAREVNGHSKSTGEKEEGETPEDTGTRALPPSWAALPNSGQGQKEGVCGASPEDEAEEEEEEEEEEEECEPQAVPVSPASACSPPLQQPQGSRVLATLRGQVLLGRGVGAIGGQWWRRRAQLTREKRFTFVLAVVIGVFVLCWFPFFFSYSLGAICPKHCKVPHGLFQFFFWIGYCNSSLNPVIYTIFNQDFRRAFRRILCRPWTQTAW

[5] = target: T4, Serine/threonine-protein kinase 3 (Homo sapiens) (UniProt Q13188); experiment: STK3 SGC Tm panel (DSF); conditions: for ΔTm: Compound concentration 10.0 uM
T4 sequence (whole entry): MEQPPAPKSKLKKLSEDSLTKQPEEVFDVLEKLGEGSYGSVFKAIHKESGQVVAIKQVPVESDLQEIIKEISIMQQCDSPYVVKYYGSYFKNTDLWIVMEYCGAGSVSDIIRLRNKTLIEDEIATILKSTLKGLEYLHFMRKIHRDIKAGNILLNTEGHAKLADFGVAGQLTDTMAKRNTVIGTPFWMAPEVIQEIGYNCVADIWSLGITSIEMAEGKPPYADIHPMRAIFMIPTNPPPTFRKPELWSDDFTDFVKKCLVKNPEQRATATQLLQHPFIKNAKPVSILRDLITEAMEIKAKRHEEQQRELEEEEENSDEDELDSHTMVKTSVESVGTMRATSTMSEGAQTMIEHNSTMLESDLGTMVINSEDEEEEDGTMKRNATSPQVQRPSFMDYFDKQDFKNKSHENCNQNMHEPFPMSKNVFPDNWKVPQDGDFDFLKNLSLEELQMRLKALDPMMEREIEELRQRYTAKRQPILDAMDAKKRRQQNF

[6] = target: 5-hydroxytryptamine receptor 1B (Homo sapiens) (UniProt P28222); conditions: Compound concentration 10.0 uM
[7] = target: Ribosomal protein S6 kinase alpha-5 (Homo sapiens) (UniProt O75582); experiment: RPS6KA5 SGC Tm panel (DSF); conditions: for ΔTm: Compound concentration 10.0 uM
[8] = target: G protein-coupled receptor kinase 5 (Homo sapiens) (UniProt P34947); experiment: GPRK5 SGC Tm panel (DSF); conditions: for ΔTm: Compound concentration 10.0 uM
[9] = target: Casein kinase II subunit alpha' (Homo sapiens) (UniProt P19784); experiment: CSNK2A2 SGC Tm panel (DSF); conditions: for ΔTm: Compound concentration 10.0 uM
Chain of Casein kinase II subunit alpha' (Homo sapiens) (P19784 whole entry, looked up): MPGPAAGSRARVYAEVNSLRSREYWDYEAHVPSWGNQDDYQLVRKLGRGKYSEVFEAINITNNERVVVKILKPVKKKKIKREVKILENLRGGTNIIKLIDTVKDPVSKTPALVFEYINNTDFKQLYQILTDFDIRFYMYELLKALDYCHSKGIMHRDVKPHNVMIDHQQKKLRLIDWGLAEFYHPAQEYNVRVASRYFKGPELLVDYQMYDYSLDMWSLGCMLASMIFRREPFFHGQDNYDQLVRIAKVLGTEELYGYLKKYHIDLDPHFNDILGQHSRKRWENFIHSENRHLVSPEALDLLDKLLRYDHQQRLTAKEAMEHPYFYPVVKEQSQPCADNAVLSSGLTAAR

Chain of Ribosomal protein S6 kinase alpha-5 (Homo sapiens) (O75582 whole entry, looked up): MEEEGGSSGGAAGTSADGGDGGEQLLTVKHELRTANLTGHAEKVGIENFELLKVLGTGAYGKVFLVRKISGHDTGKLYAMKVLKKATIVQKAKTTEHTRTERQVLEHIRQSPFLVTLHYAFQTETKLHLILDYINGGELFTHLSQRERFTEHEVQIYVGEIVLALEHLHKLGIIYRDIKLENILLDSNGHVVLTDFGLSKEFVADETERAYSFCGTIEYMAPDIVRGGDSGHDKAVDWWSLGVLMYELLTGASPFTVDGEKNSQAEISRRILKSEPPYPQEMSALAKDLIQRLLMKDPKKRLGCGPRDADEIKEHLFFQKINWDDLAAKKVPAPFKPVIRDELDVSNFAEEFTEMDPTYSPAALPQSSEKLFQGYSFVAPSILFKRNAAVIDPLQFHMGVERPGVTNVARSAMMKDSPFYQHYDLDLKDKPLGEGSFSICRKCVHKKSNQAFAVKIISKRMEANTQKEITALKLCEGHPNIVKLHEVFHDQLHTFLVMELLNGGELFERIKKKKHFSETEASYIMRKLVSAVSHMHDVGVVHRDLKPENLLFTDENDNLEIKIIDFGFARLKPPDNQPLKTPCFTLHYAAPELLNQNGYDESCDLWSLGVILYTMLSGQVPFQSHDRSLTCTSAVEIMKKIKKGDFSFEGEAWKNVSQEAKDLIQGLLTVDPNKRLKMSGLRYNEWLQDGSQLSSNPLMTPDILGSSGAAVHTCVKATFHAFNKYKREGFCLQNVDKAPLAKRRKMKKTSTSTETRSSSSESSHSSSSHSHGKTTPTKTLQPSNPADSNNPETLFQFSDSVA
Chain of 5-hydroxytryptamine receptor 1B (Homo sapiens) (P28222 whole entry): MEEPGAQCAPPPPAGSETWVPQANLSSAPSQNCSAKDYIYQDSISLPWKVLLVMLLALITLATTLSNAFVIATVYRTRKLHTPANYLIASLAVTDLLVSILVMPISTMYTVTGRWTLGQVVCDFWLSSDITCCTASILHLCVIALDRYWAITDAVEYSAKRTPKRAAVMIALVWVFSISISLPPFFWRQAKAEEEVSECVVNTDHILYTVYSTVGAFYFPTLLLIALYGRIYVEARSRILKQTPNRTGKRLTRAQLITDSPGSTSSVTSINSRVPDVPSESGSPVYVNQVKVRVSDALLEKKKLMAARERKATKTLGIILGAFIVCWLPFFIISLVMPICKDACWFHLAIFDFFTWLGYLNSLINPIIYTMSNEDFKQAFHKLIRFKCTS
Chain of Histamine H4 receptor (Homo sapiens) (Q9H3N8 whole entry): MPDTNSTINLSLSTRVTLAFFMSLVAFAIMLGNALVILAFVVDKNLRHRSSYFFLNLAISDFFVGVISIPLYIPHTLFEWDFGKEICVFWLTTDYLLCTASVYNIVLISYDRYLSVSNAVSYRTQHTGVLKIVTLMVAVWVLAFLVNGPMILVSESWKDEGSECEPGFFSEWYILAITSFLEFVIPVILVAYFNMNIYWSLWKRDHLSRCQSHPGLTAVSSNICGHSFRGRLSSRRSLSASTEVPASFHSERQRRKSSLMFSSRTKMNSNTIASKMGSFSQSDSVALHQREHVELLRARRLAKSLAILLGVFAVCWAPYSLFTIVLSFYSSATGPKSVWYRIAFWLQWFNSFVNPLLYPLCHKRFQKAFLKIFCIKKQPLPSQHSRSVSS
Chain of G protein-coupled receptor kinase 5 (Homo sapiens) (P34947 whole entry, looked up): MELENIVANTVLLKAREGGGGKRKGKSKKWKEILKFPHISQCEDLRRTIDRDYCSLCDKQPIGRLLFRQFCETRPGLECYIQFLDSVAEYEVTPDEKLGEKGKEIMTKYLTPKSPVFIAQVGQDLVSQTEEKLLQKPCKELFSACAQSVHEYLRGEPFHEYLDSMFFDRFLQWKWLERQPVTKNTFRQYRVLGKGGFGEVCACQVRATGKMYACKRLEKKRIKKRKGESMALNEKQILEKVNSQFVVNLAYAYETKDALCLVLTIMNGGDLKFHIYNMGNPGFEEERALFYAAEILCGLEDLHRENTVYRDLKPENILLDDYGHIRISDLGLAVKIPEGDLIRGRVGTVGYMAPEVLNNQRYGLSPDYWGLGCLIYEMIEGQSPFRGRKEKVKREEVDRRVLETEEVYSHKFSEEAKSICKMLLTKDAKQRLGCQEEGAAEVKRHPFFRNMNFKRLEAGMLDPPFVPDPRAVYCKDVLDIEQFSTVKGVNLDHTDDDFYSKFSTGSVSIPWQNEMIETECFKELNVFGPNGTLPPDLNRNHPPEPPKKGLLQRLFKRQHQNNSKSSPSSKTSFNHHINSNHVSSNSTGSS

Structure (SMILES) | delta Tm Staurosporine positive control [1] | ΔTm [1] | delta Tm Staurosporine positive control [2] | ΔTm [2] | inhibition [3] [%] | inhibition [4] [%] | delta Tm Staurosporine positive control [5] | ΔTm [5] | inhibition [6] [%] | delta Tm Staurosporine positive control [7] | ΔTm [7] | delta Tm Staurosporine positive control [8] | ΔTm [8] | delta Tm Staurosporine positive control [9] | ΔTm [9]
CCC[C@H]1CNCc2c1[nH]c(=O)c(C#N)c2N1CCC2(CC1)CC2 | 10.6 | -0.858 | 7.31 | -0.224 | 14.2 | 4.16 | 16.5 | -0.737 | -6.99 | 13.8 | -0.275 | 7.03 | 0.0527 | 4.21 | -0.244
CCC[C@@H]1CNCc2c1[nH]c(=O)c(C#N)c2N1CCC2(CC1)CC2 | 10.6 | -0.79 | 7.31 | -0.292 | -8.1 | 16.9 | 16.5 | -0.767 | 2.21 | 13.8 | -0.505 | 7.03 | 0.00192 | 4.21 | -0.242
